{"source": "patent US8629330B2", "about": "“Methods and compositions for the inhibition of meristematic growth on cucurbit rootstock” (Syngenta Participations AG, priority 2012, dated 2014)", "key": {"[1]": {"system": "shoot apical meristem of cucurbit rootstock plant", "assay": "Inhibition of the shoot apical meristem of cucurbit rootstock", "assay_type": "in vivo", "conditions": "fatty alcohols about 2.3% (v/v); Oryzalin about 10 mM; sulfuric acid about 18N to about 9N; applied to shoot apical meristem", "text": "Rootstock plants, bottle gourd (Lagenaria siceraria var. ‘Emphasis’) or interspecific hybrid squash (C. maxima×C. moschata var. ‘Carnivor’), were sown in Fafard 3-b fertilizer-free mix and allowed to germinate. At the point when the cotyledons unfolded, (approx. 5-10 days after seeding) a droplet of a composition comprising fatty alcohols was applied to the shoot apical meristem of the seedling, between the cotyledons, so that the meristem was covered with solution. […] The droplet volume was 20 to 500 μL and was applied with a pipette (20-200 μL or 1000 μL volume capability, using plastic tips). Seedlings were watered prior to treatment, to avoid needing to water post-treatment, which can dilute or wash away the fatty alcohol solution and prevent burnout of the shoot apical meristem. The treated rootstock seedlings can then be grafted to the appropriate scion at about 1 to 21 days post-treatment. In this case, the rootstock seedling was grafted to a cucurbit scion at about 24 hours after the rootstock shoot apical meristem was first contacted with the fatty alcohol composition.\nMaleic hydrazide (21.7%; Royal MH-30®; Chemtura Corp., Middlebury, Conn.) at a concentration of about 90 mg/ml was applied to the shoot apical meristem of rootstock plant. The treated rootstock plants were incubated for about 24 hours prior to grafting to a scion."}, "[2]": {"system": "cucurbit rootstock seedling grafted to watermelon or melon scion", "experimental": "Grafting can be performed at about 1-21 days after a rootstock shoot apical meristem is treated with a fatty alcohol solution. Possible grafting methods include the following: 1) hole-insertion, in which the rootstock meristem is removed, a hole is punched into the old meristematic area with a bamboo needle, and the scion (cut at the end to both sharpen and expose vascular cambium tissue) is inserted into the prepared rootstock; and 2) one cotyledon, where the rootstock's meristem area and one cotyledon are removed, and the cut scion hypocotyl is adjoined to the resulting wound, stabilized with a clip, and allowed to heal. Once grafted, the plants are placed for approximately seven days in a healing chamber under high humidity for about the first 1-3 days, and then gradually decreasing humidity for the remaining days. After about seven days of healing, the grafted plants can be removed from the chamber and planted.\nIn this case, the cucurbit rootstock seedling as described in Example 1 was grafted to a cucurbit scion, watermelon (Citrullus lanatus subsp. vulgaris cv. ‘Tri-X-313’) or melon (Cucumis melo cv. ‘Athena’) at about 24 hours after the rootstock shoot apical meristem was first contacted with the fatty alcohol composition. Seven days were allowed for the graft to heal. […]"}}, "data": [{"smiles": "O=S(=O)(O)O", "note": "[sulfuric acid, Sulfuric acid]", "values": [{"measurement": "effect on rootstock shoot apical meristem", "setting": "[1]", "result": "death of the shoot apical meristem"}, {"measurement": "successful grafts out of 2016 attempted grafts", "setting": "[2]; grafted about 24 hours after treatment, fatty alcohols about 2.3% (v/v), maleic hydrazide about 90 mg/ml, Oryzalin about 10 mM, sulfuric acid about 18N to about 9N", "result": "none were successful"}, {"measurement": "effect on grafting tissues", "setting": "[2]; sulfuric acid about 18N to about 9N applied to shoot apical meristem", "result": "the grafting tissues were also destroyed"}]}]}
